Assay results reported in patent US7612208B2, “Crystalline form of the salt of 4-(3-chloro-4-(cyclopropylaminocarbonyl)aminophenoxy)-7-methoxy-6-quinolinecarboxamide or the solvate of the salt and a process for preparing the same” (Eisai R&D Management Co., Ltd., priority 2003, dated 2009).

Columns and labels:
Assay type in all cases: physicochemical
[1] = Test for measuring dissolution rate (rotating disk method); conditions: 2nd fluid pH 6.8, 37° C., 50 rpm
Description: The dissolution rates of the following crystals were measured under the conditions described below by the rotating disk method (see, J. H. Woods et al., J. Pharm. Soc., 54, 1068 (1955)): a crystalline form of the free carboxamide (obtained in Preparation Example 1), a crystalline form of the hydrochloride of the carboxamide (obtained in Example 1), a crystalline form of the hydrobromide of the carboxamide (obtained in Example 2), a crystalline form of the methanesulfonate (hereunder, referred to as “mesylate”) of the carboxamide (Form A) (obtained in Example 5), a crystalline form of the mesylate of the carboxamide (Form C) (obtained in Example 7) and a crystalline form of the ethanesulfonate (hereunder, referred to as “esylate”) (Form β) (obtained in Example 12). The dissolution rates were calculated based on a range in which linearity was maintained in the relation between concentration and time at the initial stage of dissolution.
(Rotating Disk Method Conditions)
• Solvent: “2nd fluid” (pH 6.8, 500 mL) as described in Japanese Pharmacopoeia 14th Edition, General Tests (disintegration test) • Temperature: 37° C. • Disk rotation speed: 50 rpm • Area of powder contacting with solvent on disk: 1 cm^2 • Sampling amount: approx. 1 mL (HPLC Conditions) • Column: Cadenza CD-18 (Imtakt Corporation; inner diameter 4.6 mm, Column length 100 mm, particle size 3 μm) • Column temperature: 40° C. • Flow rate: 1.0 mL/min • Mobile phase:
Concentration of solution B: 20% • Injection amount: 100 μL • Detection: ultraviolet absorbance photometer (wavelength: 252 nm) • Temperature of auto sampler: 25° C. [Results]

[2] = Evaluation of hygroscopicity (storage 1 week; water content, powder X-ray diffraction)
Description: The hygroscopicity and solid stability of a crystalline form of the mesylate of the carboxamide (Form A) (obtained in Example 5), a crystalline form of the mesylate of the carboxamide (Form C) (obtained in Example 7), a crystalline form of the acetic acid solvate of the mesylate of the carboxamide (Form I) (obtained in Example 10) and a crystalline form of the esylate of the carboxamide (Form β) (obtained in Example 12) were measured under the following conditions.
1. Storage Conditions for the Hygroscopicity Test (Period: 1 Week)
a-1. 25° C., relative humidity 75%
b-1. 25° C., relative humidity 93%
Analysis was carried out according to “X-Ray Powder Diffraction Method” described in Japanese Pharmacopoeia 14th Edition, General Tests (B-614 to 619) under the following measurement conditions. • Apparatus: RINT-2000 (manufacture by Rigaku Denki K. K.) • X-ray: CuKα ray • Monochrometer: curved crystal monochrometer • Goniometer: vertical goniometer • Counter: scintillation counter • Applied voltage: 40 kV • Charging current: 200 mA • Scan speed: 5°/min • Scan axis: 2θ/θ • Scan range; 2θ+5° to 40° • Divergent slit: 0.5° • Scattering slit: 0.5° • Receiving slit: 0.3 mm 5. Measurement of Water Content
Measurement was carried out according to the Water Determination as described in Japanese Pharmacopoeia 14th Edition, General Tests (B-318 to 331) using 6 to 10 mg of each crystal.

[3] = Evaluation of solid stability (storage 2 weeks; total impurity by HPLC, water content, powder X-ray diffraction)
Description: 2. Storage Conditions for the Solid Stability Test (Period: 2 Weeks) a-2. −20° C. (well closed) b-2. 25° C., light irradiation (1000 1×; shading with aluminum foil, well closed) c-2. 25° C., light irradiation (1000 1×; well closed) […]
e-2. 60° C. (well closed except the following case: slightly open in the case of a crystalline form of the acetic acid solvate of the mesylate (Form I))
3. Method for Measuring the Impurity Amount by HPLC
After storage, the sample solution was prepared by adding a mixed solvent of water and methanol (3:1) to each crystal at 0.1 mg/mL as final concentration.
Tests were conducted by the HPLC method for these sample solutions under the measurement conditions described below, and the eluted peak areas were measured to determine the total impurity amount by the relative area method (impurities of 0.05% or more were counted).
(Formula for Calculating Total Impurity Amount)
• Individual impurity amount (%)=(the peak area for the individual impurity)×100/{(the peak area for carboxamide)+(sum of the peak areas for impurities)} • Total impurity amount (%)=sum of individual impurity amounts (HPLC Measurement Conditions) • Column: Mightysil RP-18 GP (Kanto Kagaku; inner diameter 4.6 mm, column length 150 mm, particle size 3 μm) • Column temperature: constant temperature in vicinity of 40° C. • Flow rate: 1.0 mL/min • Mobile phase:
Solution B: CH3CN:H2O:HClO4=900:100:1 (v/v/v) • Gradient conditions […]
• Injection amount: 10 μL • Detection: ultraviolet absorbance photometer (wavelength: 252 nm) • Temperature of auto sampler: constant temperature in vicinity of 10° C. 4. Powder X-ray Diffraction […]
Measurement of Water Content

[4] = 25° C., relative humidity 75% or 93%, 1 week
[5] = a-1: 25° C., relative humidity 75%, 1 week
[6] = b-1: 25° C., relative humidity 93%, 1 week
[7] = a-2: −20° C. (well closed), 2 weeks
[8] = b-2: 25° C., light irradiation 1000 lx, shading with aluminum foil, well closed, 2 weeks
[9] = c-2: 25° C., light irradiation 1000 lx, well closed, 2 weeks
[10] = d-2: 40° C., relative humidity 75%, 2 weeks
[11] = e-2: 60° C., 2 weeks (well closed; slightly open for Form I)
[12] = solid stability test, initial, HPLC relative area

dissolution rate [1] | change of water content [2, 4] | water content [2, 5] | water content [2, 6] | water content ([2]; hygroscopicity test, initial) | total impurity [3, 7] | water content [3, 7] | total impurity [3, 8] | water content [3, 8] | total impurity [3, 9] | water content [3, 9] | total impurity [3, 10] | water content [3, 10] | total impurity [3, 11] | water content [3, 11] | water content ([3]; solid stability test, initial) | total impurity [3, 12] | SMILES | change in appearance and crystal transition [2, 4] | other results
15.5 μg/min/cm^2 | did not change remarkably | 0.6% | 0.7% | 0.7% | 2.10% | 0.7% | 2.09% | 0.8% | 2.22% | 0.7% | 2.06% | 0.6% | 2.18% | 0.5% | 0.7% | 2.11% | COc1cc2nccc(Oc3ccc(NC(=O)NC4CC4)c(Cl)c3)c2cc1C(N)=O.CS(=O)(=O)O [mesylate (Form C), Methanesulfonate of 4-(3-chloro-4-(cyclopropylaminocarbonyl)aminophenoxy)-7-methoxy-6-quinolinecarboxamide] | Neither remarkable change in appearance nor crystal transition was observed | hygroscopicity [2, 4]: not observed; changes in water content and appearance, crystal transition ([3]; solid stability test, 2 weeks, all storage conditions): neither remarkable changes in water content and appearance nor crystal transition was observed
– | a decrease in water content was observed | 0.6% | 0.8% | 2.9% | 0.67% | 3.1% | 0.66% | 3.1% | 0.87% | 2.9% | 0.61% | 0.9% | 0.84% | 0.3% | 2.9% | 0.62% | CC(=O)O.COc1cc2nccc(Oc3ccc(NC(=O)NC4CC4)c(Cl)c3)c2cc1C(N)=O.CS(=O)(=O)O [Acetic Acid Solvate of the Methanesulfonate of 4-(3-chloro-4-(cyclopropylaminocarbonyl)aminophenoxy)-7-methoxy-6-quinolinecarboxamide] | transition to a crystalline form of the mesylate (Form C) | crystal transition ([3]; 40° C. and relative humidity of 75%, 2 weeks): transition to a crystalline form of the mesylate (Form C); crystal transition ([3]; 60° C. in a slightly opened container, 2 weeks): transition to a crystalline form of the mesylate (Form B); crystal transition, changes in total impurity amount, water content and appearance ([3]; stored in a well closed container, 2 weeks): neither crystal transition nor remarkable changes in total impurity amount, water content and appearance were observed
4.7 μg/min/cm^2 | – | – | – | – | – | – | – | – | – | – | – | – | – | – | – | – | COc1cc2nccc(Oc3ccc(NC(=O)NC4CC4)c(Cl)c3)c2cc1C(N)=O.Cl [hydrochloride, Hydrochloride of 4-(3-chloro-4-(cyclopropylaminocarbonyl)aminophenoxy)-7-methoxy-6-quinolinecarboxamide] | – | –
